The experiment has as its system L1210 leukemia ip in BDF1 mice, survival T/C. As to the kind of experiment: NCI In Vivo Anticancer Drug Screen. Data for tumor model L1210 Leukemia (intraperitoneal) in B6D2F1 (BDF1) mice. Particulars: endpoint: mean survival time, higher = longer survival. An outline of the steps: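 Tumor was transplanted into mice, which were then dosed with test compound or vehicle alone. Survival was recorded for each group, and the treated figure was expressed relative to the control figure.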

The mark [1] stands for this setting: dose: 100.0 mg/kg/injection, schedule: Q01DX009 (ip), vehicle: saline with Tween-80.
Where [2] appears, read: dose: 100.0 mg/kg/injection, schedule: Q04DX003 (ip), vehicle: saline with Tween-80.
Setting [3] is: dose: 200.0 mg/kg/injection, schedule: Q04DX003 (ip), vehicle: saline with Tween-80.
Setting [4] is: dose: 400.0 mg/kg/injection, schedule: Q04DX003 (ip), vehicle: saline with Tween-80.
Setting [5] is: dose: 100.0 mg/kg/injection, schedule: Q01DX001 (ip), vehicle: saline with Tween-80.
[6] abbreviates: dose: 6.25 mg/kg/injection, schedule: Q01DX009 (ip), vehicle: saline with Tween-80.
Setting [7] is: dose: 12.5 mg/kg/injection, schedule: Q01DX009 (ip), vehicle: saline with Tween-80.
Where [8] appears, read: dose: 25.0 mg/kg/injection, schedule: Q01DX009 (ip), vehicle: saline with Tween-80.
Where [9] appears, read: dose: 100.0 mg/kg/injection, schedule: Q04DX003 (ip), vehicle: saline.
Setting [10] is: dose: 200.0 mg/kg/injection, schedule: Q04DX003 (ip), vehicle: saline.

Several values for one entry are separate records, joined by “and”; a condition that tells them apart may be missing. Equal values may be shown once. Inconclusive results and toxic doses are left out.

Regarding `Cc1ccc(C2(C#N)CCCCC2)cc1`, the T/C is 96 % of control under setting [1]; 108 % of control under setting [2]; 110 % of control (dose: 200.0 mg/kg/injection, schedule: Q01DX009 (ip), vehicle: saline with Tween-80); 98 % of control under setting [3]; 110 % of control (dose: 400.0 mg/kg/injection, schedule: Q01DX009 (ip), vehicle: saline with Tween-80); 101 % of control under setting [4].
With `CON1C(=O)C2(CCCCC2)C2=NOC3C(Br)CCCC231` (stereo not given), the T/C runs as follows: under setting [5], 92 % of control; under setting [2], 106 % of control; (dose: 200.0 mg/kg/injection, schedule: Q01DX001 (ip), vehicle: saline with Tween-80) 95 % of control; under setting [3], 97 % of control; (dose: 400.0 mg/kg/injection, schedule: Q01DX001 (ip), vehicle: saline with Tween-80) 95 % of control; under setting [4], 95 % of control.
With `CSCC1OC(n2cnc3c(N)nc(Cl)nc32)C(O)C1O` (stereo not given), the T/C runs as follows: (dose: 3.12 mg/kg/injection, schedule: Q01DX009 (ip), vehicle: saline with Tween-80) 97 % of control; under setting [6], 102 % of control; under setting [7], 107 % of control; under setting [8], 91 % of control; (dose: 25.0 mg/kg/injection, schedule: Q04DX003 (ip), vehicle: saline with Tween-80) 97 % of control; (dose: 50.0 mg/kg/injection, schedule: Q04DX003 (ip), vehicle: saline with Tween-80) 101 % of control. Moreover, the T/C is 95 % of control under setting [5] and 108 % of control under setting [2].
Consider `O=C(Nc1ccc(C2=NCCN2)cc1)c1ccc(NC(=O)c2ccc(C3=NCCN3)cc2)cc1`, for which the T/C is, setting by setting: (dose: 1.88 mg/kg/injection, schedule: Q01DX Z (ip), vehicle: saline) 101 % of control; (dose: 3.75 mg/kg/injection, schedule: Q01DX Z (ip), vehicle: saline) 106 % of control; (dose: 7.5 mg/kg/injection, schedule: Q01DX Z (ip), vehicle: saline) 117 % of control; (dose: 15.0 mg/kg/injection, schedule: Q01DX009 (ip), vehicle: saline) 119 % of control; (dose: 30.0 mg/kg/injection, schedule: Q01DX009 (ip), vehicle: saline) 190 % of control; (dose: 30.0 mg/kg/injection, schedule: Q01DX Z (ip), vehicle: carboxymethylcellulose (CMC)) 203 % of control. The T/C was 103 % of control (dose: 50.0 mg/kg/injection, schedule: Q01DX007 (oral), vehicle: carboxymethylcellulose (CMC)); 197 % of control and 232 % of control (dose: 60.0 mg/kg/injection, schedule: Q01DX009 (ip), vehicle: saline); 101 % of control (dose: 62.5 mg/kg/injection, schedule: Q## X010 (oral), vehicle: saline); 100 % of control (dose: 100.0 mg/kg/injection, schedule: Q01DX007 (oral), vehicle: carboxymethylcellulose (CMC)); 117 % of control (dose: 120.0 mg/kg/injection, schedule: Q01DX009 (ip), vehicle: saline); 102 % of control (dose: 125.0 mg/kg/injection, schedule: Q## X010 (oral), vehicle: saline). Besides, the T/C is 108 % of control (dose: 200.0 mg/kg/injection, schedule: Q01DX007 (oral), vehicle: carboxymethylcellulose (CMC)); 94 % of control (dose: 400.0 mg/kg/injection, schedule: Q01DX007 (oral), vehicle: carboxymethylcellulose (CMC)); 101 % of control (dose: 500.0 mg/kg/injection, schedule: Q## X010 (oral), vehicle: saline); 101 % of control (dose: 800.0 mg/kg/injection, schedule: Q01DX007 (oral), vehicle: carboxymethylcellulose (CMC)).
Regarding `Cn1ccc(CCl)n1`, the T/C runs as follows: under setting [9], 95 % of control; under setting [10], 97 % of control.
Take `CC(C)CCS(=O)c1ccccc1` (stereo not given): the T/C (dose: 75.0 mg/kg/injection, schedule: Q01DX001 (ip), vehicle: acetone) was 91 % of control; the T/C (dose: 75.0 mg/kg/injection, schedule: Q04DX003 (ip), vehicle: acetone) was 100 % of control; the T/C (dose: 150.0 mg/kg/injection, schedule: Q01DX001 (ip), vehicle: acetone) was 100 % of control; the T/C (dose: 150.0 mg/kg/injection, schedule: Q04DX003 (ip), vehicle: acetone) is 97 % of control; the T/C (dose: 300.0 mg/kg/injection, schedule: Q01DX001 (ip), vehicle: acetone) is 98 % of control; the T/C (dose: 300.0 mg/kg/injection, schedule: Q04DX003 (ip), vehicle: acetone) was 89 % of control.
Consider `Cc1cccc(N2CCN(P(=S)(c3ccccc3)N3CCN(c4cccc(C)c4)CC3)CC2)c1`, for which the T/C is 89 % of control (dose: 100.0 mg/kg/injection, schedule: Q01DX001 (ip), vehicle: carboxymethylcellulose (CMC)); 95 % of control (dose: 200.0 mg/kg/injection, schedule: Q01DX001 (ip), vehicle: carboxymethylcellulose (CMC)); 86 % of control (dose: 400.0 mg/kg/injection, schedule: Q01DX001 (ip), vehicle: carboxymethylcellulose (CMC)).
In the case of `COC1=C(OC)C(=O)C(Sc2ccc3ccccc3c2)=CC1=O`, the T/C was 100 % of control under setting [6]; 94 % of control under setting [7]; 100 % of control under setting [8]; 96 % of control (dose: 50.0 mg/kg/injection, schedule: Q01DX009 (ip), vehicle: saline with Tween-80); 94 % of control under setting [1].
Regarding `N=C(N)S/C=C/C(=O)O`, the T/C by setting is: (dose: 25.0 mg/kg/injection, schedule: Q04DX002 (ip), vehicle: saline with Tween-80) 96 % of control; (dose: 50.0 mg/kg/injection, schedule: Q04DX002 (ip), vehicle: saline with Tween-80) 96 % of control; (dose: 100.0 mg/kg/injection, schedule: Q04DX002 (ip), vehicle: saline with Tween-80) 96 % of control and 98 % of control.
For `Nc1ccc(/C=C/c2ccc(N)cc2)cc1`, the T/C is 97 % of control (dose: 100.0 mg/kg/injection, schedule: Q04DX003 (ip), vehicle: Klucel (hydroxypropylcellulose) (HPC)); 94 % of control (dose: 200.0 mg/kg/injection, schedule: Q04DX003 (ip), vehicle: Klucel (hydroxypropylcellulose) (HPC)); 94 % of control (dose: 400.0 mg/kg/injection, schedule: Q04DX003 (ip), vehicle: Klucel (hydroxypropylcellulose) (HPC)).
`CC1(C)OCC2OC(N)C(O)C2O1` (stereo not given): the T/C is, setting by setting: under setting [9], 100 % of control; under setting [10], 89 % of control; (dose: 400.0 mg/kg/injection, schedule: Q04DX003 (ip), vehicle: saline) 98 % of control.
In the case of `CCCCCCCCCCCCCCCC(=O)O[C@@]12C[C@@H](C)[C@@]3(O)[C@@H](C=C(CO)C[C@]4(O)C(=O)C(C)=C[C@@H]34)[C@@H]1C2(C)C`, the T/C reads like this: (dose: 0.06 mg/kg/injection, schedule: Q01DX009 (ip), vehicle: saline) 97 % of control; (dose: 0.13 mg/kg/injection, schedule: Q01DX009 (ip), vehicle: saline) 107 % of control; (dose: 0.25 mg/kg/injection, schedule: Q01DX009 (ip), vehicle: saline) 95 % of control; (dose: 0.5 mg/kg/injection, schedule: Q01DX009 (ip), vehicle: saline) 101 % of control.
For `N#CC(C#N)=NNc1ccc(S(=O)(=O)O)cc1`, the T/C under setting [2] is 94 % of control, the T/C under setting [3] is 107 % of control and the T/C under setting [4] was 102 % of control.
For `CN1CCOC1=Nc1ccc(Cl)cc1` the same measures were 94 % of control, 99 % of control and 88 % of control.
Take `CC(=O)Oc1ccc(CCN(Cc2ccc3c(c2)OCO3)C(C)=O)cc1`: the T/C was 97 % of control (dose: 50.0 mg/kg/injection, schedule: Q04DX002 (ip), vehicle: Klucel (hydroxypropylcellulose) (HPC)); 91 % of control (dose: 100.0 mg/kg/injection, schedule: Q04DX002 (ip), vehicle: Klucel (hydroxypropylcellulose) (HPC)); 97 % of control (dose: 200.0 mg/kg/injection, schedule: Q04DX002 (ip), vehicle: Klucel (hydroxypropylcellulose) (HPC)).
As for `O=C1c2ccccc2-c2nc3ccccc3nc21`, the T/C runs as follows: (dose: 45.0 mg/kg/injection, schedule: Q01DX009 (ip), vehicle: Klucel (hydroxypropylcellulose) (HPC)) 95 % of control; (dose: 90.0 mg/kg/injection, schedule: Q01DX009 (ip), vehicle: Klucel (hydroxypropylcellulose) (HPC)) 93 % of control; (dose: 100.0 mg/kg/injection, schedule: Q04DX003 (ip), vehicle: saline sonified) 101 % of control; (dose: 180.0 mg/kg/injection, schedule: Q01DX009 (ip), vehicle: Klucel (hydroxypropylcellulose) (HPC)) 91 % of control; (dose: 200.0 mg/kg/injection, schedule: Q04DX003 (ip), vehicle: saline sonified) 97 % of control; (dose: 400.0 mg/kg/injection, schedule: Q04DX003 (ip), vehicle: saline sonified) 90 % of control.

For the origin of these results see PubChem BioAssay AID248 (DTP/NCI, 2004).
